Test results from patent US6391921B1 (priority 2000, dated 2002).

Key:
skh-1 mice = test: Histological studies of UVB-irradiated skin; format: in vivo
Source text: After mice from Example 7 were sacrificed electively, a skin specimen was removed and spread on a sheet of dental wax. An 8 mm^2 biopsy punch was taken and fixed in buffered formalin. 4-5 μm thick sections were cut from paraffin blocks. In order to study the histopathological changes in skin following UVB exposure, the tissue sections were stained with hematoxylin and eosin and the stained slides were examined microscopically.
The effects of compound D-58 on UVB-induced histological changes in skin were examined and the results are illustrated in the 40× magnifications of FIGS. 8A-8C. The normal epidermis typically has a 2-3 cell layer and contains scattered inflammatory cells especially around hair follicles (FIG. 8A). […] Large numbers of neutrophils also were accumulated in the dermis (FIG. 8B). In contrast, the skin of mice treated with compound D-58 looked very much like the skin of unirradiated controls (FIG. 8C), with 1-2 cell layers of epidermis and normal dermis.

Balb/c mice = test: IgE-dependent passive cutaneous anaphylaxis (Evans blue dye extravasation); format: in vivo; details: 25 mg/kg i.p. twice at 1 hour intervals prior to antigen challenge; 30 minutes after challenge; vehicle 0.64±0.08
Experimental: The in vivo biologic activity of compound D-58 was examined in a well characterized murine model of passive cutaneous anaphylaxis. In order to induce passive cutaneous anaphylaxis, left ears of Balb/c mice were sensitized with 50 μg DNP-IgE intradermally. Right ears were injected with equal volumes of saline. Dorsal sides of the ears of Balb/c mice were injected intradermally with 50 μg of DNP-IgE (left ears) or PBS (right ears) using a 30-gauge needle (ref 28). Twenty hours later, mice were challenged with 100 μg antigen (DNP-BSA) in 200 μl 2% Evans blue dye intravenously. Control mice were given PBS (but not antigen) intravenously with 2% Evans blue. For quantitation of Evans blue dye extravasation as a measure of anaphylaxis-associated vascular hyperpermeability, 8 mm^2 skin specimens were removed from the ears of mice, minced in 2 ml formamide and incubated in a 80° C. water bath for 2 hours to extract the dye. The absorbance was read at 570 nm using a spectrophotometer.
For assessment of the vascular leak, animals were sacrificed 30 minutes after the antigen challenge. The plasma exudation was assessed by quantitation of the amount of Evan's blue dye extravasated into the ear skin 30 minutes after the antigen challenge. […]

COc1ccc(CC(=O)c2c(O)cc(O)cc2O)cc1 [Compound D-58]
cell layers of epidermis (skh-1 mice; UVB-irradiated skin of treated mice, FIG. 8C, UVB-irradiated untreated 3-5, normal 2-3): 1-2 | edema and neutrophil influx in UVB irradiated skin (skh-1 mice; histology, hematoxylin and eosin): prevented the development of edema and neutrophil influx | Evans blue dye extravasation in DNP-IgE injected ears, Absorbance at 570 nm (Balb/c mice): 0.26±0.02
